Molecules are shown by their SMILES.

The procedure of this series:
The measurements were carried out with a Bruker D8 Advance powder X-ray diffractometer using Cu Kα radiation in the Bragg-Brentano reflection geometry. Generally, the 2θ values are accurate within an error of ±0.1-0.2°. The relative peak intensities can vary considerably for different samples of the same crystalline form because of different preferred orientations of the crystals. The samples were prepared without any special treatment other than the application of slight pressure to get a flat surface. Silicon single crystal sample holders of either 0.5 mm or 0.1 mm depth and 12 mm cavity diameter were used. The tube voltage and current were 40 kV and 40 mA, respectively. The X-ray diffractometer is equipped with a LynxEye detector. A variable divergence slight was used with a 3° window. The step size was 0.02° 20 with a step time of 37 seconds. The samples were rotated at 0.5 rps during the measurement.
Thermogravimetry coupled with Fourier Transform Infrared Spectroscopy (TG-FTIR): TG-FTIR was performed on a Netzsch Thermo-Microbalance TG 209, which is coupled to a Bruker FT-IR Spectrometer Vector 22. The measurements were carried out with aluminum crucibles with a micro pinhole under a nitrogen atmosphere and at a heating rate of 10° C./min over the range 25-250° C.
145 mg of crystalline hydrate form A according to example 4 is stored under a relative humidity of 60% (in an open container) for two weeks. Then the stored sample is investigated by PXRD and TG-FTIR.

As to `CCOc1ccc(Cc2cc([C@@H]3O[C@H](CO)[C@@H](O)[C@H](O)[C@H]3O)ccc2Cl)cc1` [form A, dapagliflozin], the “TG-FTIR mass loss attributable to loss of water” value (after storage at relative humidity of 60% for two weeks) is “about 9%”. Besides, the “Water content in equilibrium with a water activity of about 0.6” value (concluded from TG-FTIR mass loss) was “about 2 mol water per mol dapagliflozin”. For the same molecule, the “Crystalline form after storage (PXRD)” value (stored under a relative humidity of 60% (open container) for two weeks) was “form A is retained”.
